Data published in US11014904B2, “1,2,4-triazine-3-amine derivative, preparation method therefor, and use thereof in medicine” (Jiangsu Hengrui Medicine Co., Ltd., priority 2017, dated 2021).

Key:
[1] = target: T1, adenosine A2b receptor (A2bR) (Homo sapiens, UniProt P29275); test: Inhibition of the adenosine A2b receptor cAMP signaling pathway in CHO-K1/A2bR cells (HTRF); type: cell-based; conditions: ethyl carbazole 1 μM, Table 2
T1 construct: expressed in transfected cells; host or cells: CHO-K1
T1 sequence (P29275 1-332): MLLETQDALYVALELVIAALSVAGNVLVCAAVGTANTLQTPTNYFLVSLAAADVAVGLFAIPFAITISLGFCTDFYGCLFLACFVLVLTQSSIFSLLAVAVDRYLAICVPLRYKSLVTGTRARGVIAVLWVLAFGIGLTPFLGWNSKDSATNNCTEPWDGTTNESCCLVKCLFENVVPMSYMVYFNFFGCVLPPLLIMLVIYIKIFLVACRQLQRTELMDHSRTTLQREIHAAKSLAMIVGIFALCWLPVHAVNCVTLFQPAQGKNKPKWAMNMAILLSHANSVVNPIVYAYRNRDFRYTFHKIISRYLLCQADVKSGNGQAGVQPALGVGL
Source text: (§1) Determination of the inhibition activity of the compounds of the present invention on the adenosine A2a receptor (A2aR) cAMP signaling pathway, the adenosine A2b receptor (A2bR) cAMP signaling pathway, the adenosine A1 receptor (A1R) cAMP signaling pathway and the adenosine A3 receptor (A3R) cAMP signaling pathway.
(§2) The inhibition activity of the compounds of the present invention on the adenosine A2a receptor (A2aR) cAMP signaling pathway, the adenosine A2b receptor cAMP signaling pathway, the adenosine A1 receptor cAMP signaling pathway and the adenosine A3 receptor cAMP signaling pathway was determined by the following method. The experimental method is briefly described as follows:
2.2 Adenosine A2b Receptor
CHO-K1/A2bR cells were cultured in DMEM/F12 medium containing 10% fetal bovine serum and 1 mg/ml G418. The cells were digested with the cell separation buffer during the experiment. The cells were resuspended in the balanced salt buffer containing 20 mM HEPES and 0.1% bovine serum albumin and counted, and the cell density was adjusted to 10^6 cells/ml. In the 384-well plate, each well was added with 5 μl of cell suspension, and 2.5 μl of test compound (4× concentration) formulated with the balanced salt buffer containing 20 mM HEPES, 0.1% bovine serum albumin, 54 μM rolipram and 2.7 U/ml adenosine deaminase, and the plate was incubated at room temperature for 30 minutes. Each well was then added with 2.5 μl of […] (4× concentration) (Torcis, 1691/10) formulated with the balanced salt buffer containing 20 mM HEPES, 0.1% bovine serum albumin, 54 μM rolipram and 2.7 U/ml adenosine deaminase, and the plate was incubated at room temperature for 30 minutes. The final concentrations of the compounds were: 100000, 10000, 1000, 100, 10, 1, 0.1 and 0 nM. The final concentration of […] was 1 μM. Intracellular cAMP concentration was detected with the cAMP dynamic 2 kit. cAMP-d2 and Anti-cAMP-Eu-Cryptate were diluted respectively with the cAMP lysis buffer at a ratio of 1:4. Each well was added with 5 μl of diluted cAMP-d2, followed by addition of 5 μl of diluted Anti-cAMP-Eu-Cryptate, and the plate was incubated at room temperature in the dark for 1 hour. The HTRF signal values were read by the PHERAstar multi-function microplate reader.

[2] = target: T2, adenosine A1 receptor (A1R) (Homo sapiens, UniProt P30542); test: Inhibition of the adenosine A1 receptor cAMP signaling pathway in CHO-K1/A1R cells (HTRF); type: cell-based; conditions: for IC50: CHO-K1/A1R cells, cAMP, forskolin 10 μM, CPA 10 nM; for IC50 ratio (A1R/A2aR): selectivity A1R over A2aR
T2 construct: expressed in transfected cells; host or cells: CHO-K1
T2 sequence (P30542 1-326): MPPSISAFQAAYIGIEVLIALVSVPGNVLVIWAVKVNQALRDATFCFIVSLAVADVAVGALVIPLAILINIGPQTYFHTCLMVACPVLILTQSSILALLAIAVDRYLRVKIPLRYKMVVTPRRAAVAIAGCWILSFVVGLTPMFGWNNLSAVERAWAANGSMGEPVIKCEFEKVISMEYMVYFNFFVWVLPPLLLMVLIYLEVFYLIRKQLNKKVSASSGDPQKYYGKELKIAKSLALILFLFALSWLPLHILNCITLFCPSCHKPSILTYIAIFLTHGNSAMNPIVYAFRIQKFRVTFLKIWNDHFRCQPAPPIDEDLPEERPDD
Source text: as §1, §2
2.3 Adenosine A1 Receptor
CHO-K1/A1R cells were cultured in DMEM/F12 medium containing 10% fetal bovine serum and 1 mg/ml G418. The cells were digested with the cell separation buffer during the experiment. The cells were then resuspended in the balanced salt buffer containing 20 mM HEPES and 0.1% bovine serum albumin and counted, and the cell density was adjusted to 5×10^5 cells/ml. In the 384-well plate, each well was added with 12.5 μl of cell suspension, and 6.25 μl of test compound (4× concentration) formulated with the balanced salt buffer containing 20 mM HEPES, 0.1% bovine serum albumin, 54 μM rolipram and 2.7 U/ml adenosine deaminase, and the plate was incubated at room temperature for 30 minutes. Each well was then added with 6.25 μl of forskolin and N6-cyclopentyladenosine (4× concentration) formulated with the balanced salt buffer containing 20 mM HEPES, 0.1% bovine serum albumin, 54 μM rolipram and 2.7 U/ml adenosine deaminase, and the plate was incubated at room temperature for 30 minutes. The final concentrations of the compounds were: 100000, 10000, 1000, 100, 10, 1, 0.1 and 0 nM. The final concentrations of forskolin was 10 μM. The final concentrations of CPA was 10 nM. Intracellular cAMP concentration was detected with the cAMP dynamic 2 kit. cAMP-d2 and Anti-cAMP-Eu-Cryptate were diluted respectively with the cAMP lysis buffer at a ratio of 1:4. Each well was added with 12.5 μl of diluted cAMP-d2, followed by addition of 12.5 μl of diluted Anti-cAMP-Eu-Cryptate, and the plate was incubated at room temperature in the dark for 1 hour. The HTRF signal values were read by the PHERAstar multi-function microplate reader.

Compound	IC50 [1]	IC50 [2]	IC50 ratio (A1R/A2aR) [2]
Cc1ccnc2ccc(-c3nnc(N)nc3-c3ccccc3F)cc12 [Example 17, 5-(2-Fluorophenyl)-6-(4-methylquinolin-6-yl)-1,2,4-triazin-3-amine]	22 nM	1350 nM	2698
Cc1ncnc2ccc(-c3nnc(N)nc3-c3ccc(F)cc3)cc12 [Example 19, 5-(4-Fluorophenyl)-6-(4-methylquinazolin-6-yl)-1,2,4-triazin-3-amine]	25 nM	1420 nM	3557
Cc1ccnc2c(F)cc(-c3nnc(N)nc3-c3ccccc3F)cc12 [Example 31, 6-(8-Fluoro-4-methylquinolin-6-yl)-5-(2-fluorophenyl)-1,2,4-triazin-3-amine]		1640 nM	431
Cc1ccnc2c(F)cc(-c3nnc(N)nc3-c3ccc(F)cc3)cc12 [Example 20, 6-(8-Fluoro-4-methylquinolin-6-yl)-5-(4-fluorophenyl)-1,2,4-triazin-3-amine]		617 nM	411
Cc1ncnc2c(F)cc(-c3nnc(N)nc3-c3ccccc3)cc12 [Example 45, 6-(8-Fluoro-4-methylquinazolin-6-yl)-5-phenyl-1,2,4-triazin-3-amine]	25 nM	930 nM	775
CCc1ccnc2ccc(-c3nnc(N)nc3-c3ccc(F)cc3)cc12 [Example 44, 6-(4-Ethylquinolin-6-yl)-5-(4-fluorophenyl)-1,2,4-triazin-3-amine]		646 nM	807
[2H]C([2H])([2H])c1ncnc2ccc(-c3nnc(N)nc3-c3ccc(F)cc3)cc12 [Example 52, 5-(4-Fluorophenyl)-6-(4-(methyl-d3)quinazolin-6-yl)-1,2,4-triazin-3-amine]	14 nM	876 nM	973

These reach a lower IC50 [2]. Values come first.

IC50 [1]	IC50 [2]	IC50 ratio (A1R/A2aR) [2]	Compound
7 nM	100 nM	334	[2H]C([2H])([2H])c1ccnc2ccc(-c3nnc(N)nc3-c3ccc(F)cc3)cc12 [Example 22, 5-(4-Fluorophenyl)-6-[4-(trideuteromethyl)-6-quinolinyl]-1,2,4-triazin-3-amine]
	190 nM	948	Cc1ccnc2ccc(-c3nnc(N)nc3-c3ccc(F)cc3)cc12 [Example 18, 5-(4-Fluorophenyl)-6-(4-methylquinolin-6-yl)-1,2,4-triazin-3-amine]
	133 nM	221	Nc1nnc(-c2cc(F)c3ncccc3c2)c(-c2ccccc2)n1 [Example 2, 6-(8-Fluoroquinolin-6-yl)-5-phenyl-1,2,4-triazin-3-amine]
7 nM	248 nM	2484	Cc1ncnc2ccc(-c3nnc(N)nc3-c3ccccc3)cc12 [Example 15, 6-(4-Methylquinazolin-6-yl)-5-phenyl-1,2,4-triazin-3-amine]
18 nM	161 nM	803	Cc1ccnc2c(F)cc(-c3nnc(N)nc3-c3ccccc3)cc12 [Example 16, 6-(8-Fluoro-4-methylquinolin-6-yl)-5-phenyl-1,2,4-triazin-3-amine]
47 nM	97 nM	139	Nc1nnc(-c2ccc3ncccc3c2)c(-c2ccccc2)n1 [Example 3, 5-Phenyl-6-(quinolin-6-yl)-1,2,4-triazin-3-amine]
